From ChEMBL document CHEMBL2157974, “Viridin analogs derived from steroidal building blocks” (Bioorg Med Chem Lett, 2012)

Tests used:
[1] = system: MCF7; experiment: Cytotoxicity against human MCF7 cells after 72 hrs by MTS/PMS assay; assay type: functional, cell-based; conditions: MCF7, 72 h
[2] = Lipophilicity, log P of the compound; assay type: physicochemical; conditions: octanol/water
[3] = molecular target: PI3-kinase p110-alpha/p85-alpha (Homo sapiens, UniProt P42336); experiment: Inhibition of human recombinant P110alpha/p85alpha using phosphatidyl inositol as substrate after 1 hr by ADP-Glo Kinase assay; assay type: protein-complex assay
[4] = Inhibition of PI3K

Sequence of PI3-kinase p110-alpha/p85-alpha (P27986 whole entry): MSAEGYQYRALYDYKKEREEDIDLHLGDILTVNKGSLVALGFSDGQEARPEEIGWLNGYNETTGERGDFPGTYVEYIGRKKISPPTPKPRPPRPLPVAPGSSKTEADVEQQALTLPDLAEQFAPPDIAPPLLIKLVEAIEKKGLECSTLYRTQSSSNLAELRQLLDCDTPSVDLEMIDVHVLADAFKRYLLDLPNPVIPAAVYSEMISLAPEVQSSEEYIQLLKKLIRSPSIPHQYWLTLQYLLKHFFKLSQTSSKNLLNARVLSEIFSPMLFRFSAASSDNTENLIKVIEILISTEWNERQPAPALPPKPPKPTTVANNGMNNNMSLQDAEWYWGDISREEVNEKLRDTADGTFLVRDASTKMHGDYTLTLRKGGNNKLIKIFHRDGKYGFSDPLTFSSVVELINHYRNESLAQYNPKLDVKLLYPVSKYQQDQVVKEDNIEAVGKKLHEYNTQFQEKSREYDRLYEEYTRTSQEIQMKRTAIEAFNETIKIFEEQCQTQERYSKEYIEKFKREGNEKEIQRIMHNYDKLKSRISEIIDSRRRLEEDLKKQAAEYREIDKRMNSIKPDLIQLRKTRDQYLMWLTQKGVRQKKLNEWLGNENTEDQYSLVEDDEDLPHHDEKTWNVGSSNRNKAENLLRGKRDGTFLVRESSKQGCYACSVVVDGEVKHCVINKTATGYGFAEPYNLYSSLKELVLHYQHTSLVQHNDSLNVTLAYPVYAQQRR
Sequence of PI3-kinase p110-alpha/p85-alpha (P42336 whole entry): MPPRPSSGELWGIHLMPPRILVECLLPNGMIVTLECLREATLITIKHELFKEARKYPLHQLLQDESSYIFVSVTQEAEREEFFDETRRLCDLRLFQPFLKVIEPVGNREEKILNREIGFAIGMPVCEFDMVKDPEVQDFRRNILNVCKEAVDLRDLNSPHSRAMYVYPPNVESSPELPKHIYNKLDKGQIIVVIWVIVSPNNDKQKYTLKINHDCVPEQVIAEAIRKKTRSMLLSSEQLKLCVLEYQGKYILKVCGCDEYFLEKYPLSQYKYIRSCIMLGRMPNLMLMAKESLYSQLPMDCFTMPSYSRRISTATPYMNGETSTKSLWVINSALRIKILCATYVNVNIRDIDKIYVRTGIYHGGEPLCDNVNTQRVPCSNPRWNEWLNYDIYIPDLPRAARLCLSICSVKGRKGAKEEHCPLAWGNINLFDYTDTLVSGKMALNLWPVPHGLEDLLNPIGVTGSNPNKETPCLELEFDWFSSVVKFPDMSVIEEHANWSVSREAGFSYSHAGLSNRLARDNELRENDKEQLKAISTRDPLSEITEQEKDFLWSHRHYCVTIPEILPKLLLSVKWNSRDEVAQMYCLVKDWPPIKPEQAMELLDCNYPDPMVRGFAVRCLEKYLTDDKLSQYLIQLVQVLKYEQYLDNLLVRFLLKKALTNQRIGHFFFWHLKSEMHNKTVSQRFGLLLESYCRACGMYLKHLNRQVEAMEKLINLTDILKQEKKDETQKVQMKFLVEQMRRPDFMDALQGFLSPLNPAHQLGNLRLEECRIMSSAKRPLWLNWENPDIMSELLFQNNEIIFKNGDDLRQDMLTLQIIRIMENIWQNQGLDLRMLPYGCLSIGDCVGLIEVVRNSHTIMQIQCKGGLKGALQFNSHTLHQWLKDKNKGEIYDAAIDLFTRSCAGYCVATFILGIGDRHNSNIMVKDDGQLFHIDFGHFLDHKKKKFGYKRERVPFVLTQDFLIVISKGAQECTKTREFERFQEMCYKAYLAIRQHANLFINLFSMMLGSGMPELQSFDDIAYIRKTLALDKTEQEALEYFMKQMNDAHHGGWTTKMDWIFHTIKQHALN

| Compound | IC50 [1] [nM] | logP [2] | IC50 [3] [nM] | IC50 [4] [nM] |
| --- | --- | --- | --- | --- |
| C[C@]12CCC(=O)c3coc(c31)C(=O)[C@@H]1[C@@H]2CC[C@]2(C)C(=O)CC[C@@H]12 | 22900 | 2.65 | 339 |  |
| C=CCN/C=C1/C(=O)CC[C@@]2(C)C1=C(O)C(=O)[C@@H]1[C@@H]2CC[C@]2(C)C(=O)CC[C@@H]12 | 37700 |  | 271 |  |
| C[C@]12CCC(=O)c3coc(c31)C(=O)C[C@@H]2O (racemic) | > 100000 | 0.58 | 178 |  |
| CO[C@@H]1C(=O)c2coc3c2[C@@](C)(c2ccc4c(c2C3=O)CCC4=O)[C@@H]1O [VIRIDIN] |  |  |  | 2 |
| COC[C@H]1OC(=O)c2coc3c2[C@@]1(C)C1=C(C3=O)[C@@H]2CCC(=O)[C@@]2(C)C[C@H]1OC(C)=O [WORTMANNIN] | > 100000 |  |  | 2 |
